Test results taken from patent US20240181000A1, “LGG-DERIVED PEPTIDES AND METHODS OF USE THEREOF” (Ohio State Innovation Foundation, priority 2021, published 2024).
Like-named read-outs stand apart in the source and are kept apart here. No end group written: not given here.

What was measured:
[1] = tested on: ST; type: in vivo, chickens; conditions: for Reduction of percent of birds positive for ST in the liver: 50 mg/kg twice daily
Method: Efficacy of peptides in chickens: To assess the efficacy of peptides against ST in chickens, one-day-old specific pathogen free (SPF) layer chickens from a Salmonella free flock at The Ohio State University were obtained and provided with feed and water ad libitum. Chickens (n=10/group) were treated with P1, P2, or P4 at 50 mg/kg body weight twice-daily doses. Peptides were dissolved in water to reach final concentration of 50 mg/kg and orally administered from day 1 to day 7. Early intestinal colonization is important for poultry health and thus is why peptide treatment was begun at day 1. Birds were challenged with 10^4 CFU of nalidixic acid resistant ST on day 3. At day 10 [7 days post infection (dpi)] chickens were euthanized, and the cecum, liver, and spleen were collected to determine the peptide's ability to reduce ST infection. The cecum was suspended in PBS, homogenized, ten-fold serially diluted, and plated on XLT4 agar plates supplemented with 50 μg/ml nalidixic acid and incubated for 24 h at 37° C. The liver and spleen were individually suspended in PBS and the undiluted homogenized suspension was plated directly and incubated for 24 h at 37° C. One milliliter of the undiluted homogenized liver and spleen was enriched in 9 ml of tetrathionate broth (TTB) for 24 h at 37° C. After incubation they were plated as described above to enumerate ST in each tissue. The body weights of chickens were measured on the day of necropsy (day 10). An untreated positive control group (PC: infected but untreated) and a negative control group (NC: non infected and non-treated) were included in the study. A Mann-Whitney test was used to determine statistical significance (P<0.05) of treatment on ST load in cecum and on body weight.

[2] = tested on: APEC; type: in vivo, chickens
Description: FIGS. 57A-57D show the APEC load of chickens (at 7 dpi [days post infection]) treated with either peptides P-1 or P-2.

[3] = tested on: APEC O78; type: cell-based, E. coli
Method: Anti-APEC activity determination: The anti-APEC activity of peptides was determined in LB broth following CLSI guidelines. Briefly, overnight grown APEC O78 was adjusted to 5×10^5 CFU/mL concentration in fresh LB media. One-hundred microliters of APEC suspension was aliquoted into the wells of the 96-well plate. Peptides were added to the wells at 6 mM and 12 mM concentrations and incubated at 37° C. in TECAN Sunrise™ absorbance microplate reader with kinetic absorbance measurement set at every 30 mins for 12 h. Sterile media and DMSO (solvent) were used as controls. The growth inhibitory activity of the peptides against APEC was calculated using the formula: (OD600 DMSO treated well−OD600 peptide treated well)/OD600 DMSO treated well×100%.
The minimum inhibitory concentration (MIC) was determined for selected peptides (P1, P2, P3, and P4) using similar assay as above. Peptides were added to the wells of the 96-well plate at 6 mM, 9 mM, 12 mM, 15 mM, and 18 mM concentrations. The peptide concentration at which there is no visible APEC growth (no OD increase) was determined as MIC. Two independent experiments were conducted.
Arginine and lysine substituted peptide analogues: The non-essential amino acid residues identified in each peptide were substituted with arginine/lysine to test whether these substitutions enhance the anti-APEC activity of peptides. The MICs of arginine and lysine substituted peptide analogues ([…] (SEQ ID NO:37), […] (SEQ ID NO:38), […] (SEQ ID NO:39), KDENK (SEQ ID NO:41), PDEKK (SEQ ID NO:42), KDEKK (SEQ ID NO:43), KHTAPK (SEQ ID NO:45), VKTAPK (SEQ ID NO:46), VHTKPK (SEQ ID NO:47), and KKTKPK (SEQ ID NO:48)) were determined as above and compared with original peptides.

[4] = tested on: ST; test: Alanine scanning SAR, anti-Salmonella activity; type: cell-based, Salmonella enterica
Method: Relative Importance was calculated using formula: (percent growth in analogue-percent growth in original peptide)/(percent growth in DMSO-treated control-percent growth in original peptide)×100.
Structural-activity relationship (SAR) study: Structure activity relationship analysis was used to better determine the important amino acids required for Anti-Salmonella activity of P1 and P2. Alanine scanning libraries of P1 and P2 were synthesized from Genscript (Table 28; (www.genscript.com/alanine_scanning.html) and tested for inhibitory activity as described above. Relative importance [(percent growth in analogue-percent growth in original peptide)/(percent growth in DMSO-treated control-percent growth in original peptide)×100] was used to identify crucial amino acids of each amino acid residue of the peptide. Two independent experiments were conducted to ensure accuracy.

[5] = tested on: Biofilm embedded SE; test: MBEC Assay; type: cell-based, Salmonella enterica; conditions: at MICs; untreated 6.77 ± 0.02
Method: Peptides effect against biofilm embedded Salmonella: To analyze the ability of the peptides (P1, P2, and P4) to retain their inhibitory characteristics against biofilm protected Salmonella, Innovotech's MBEC Assay® (Innovotech Inc., AB, Canada) was conducted as previously detailed. Initially, 150 μL of 5×10^7 CFU/mL adjusted ST or SE suspension in LB media was aliquoted into the wells of MBEC inoculator plates containing polystyrene pegs and incubated for 36 h on a rocker platform at 37° C. to allow the biofilm formation. After biofilm formation, the pegs were washed to remove loosely adherent planktonic bacteria and transferred to a new 96-well plate containing peptides at MICs, with relevant controls, in 200 μL 25% LB media. The diluted LB media was used because it allows for slow bacterial growth to promote biofilm formation due to limited nutrients. The plate was incubated for 18 h at 37° C. with rotation at 150 rpm. Sterile media and DMSO were used as controls. Following incubation, the MICs of peptides in challenge plate were recorded. The pegs were transferred to new 96-well plate containing PBS and sonicated for 30 minutes to disrupt the biofilm. The sonicated suspensions were then ten-fold serially diluted and plated on LB agar plates to enumerate the biofilm protected bacteria and determine the minimum biofilm eradication concentration (MBEC) of peptides. Three independent experiments were conducted to ensure accuracy.

Row | Substance | Reduction of percent of birds positive for ST in the liver [1] [%] | Reduction of ST colonization in the cecum ([1]; 50 mg/kg twice daily 7 days, day 10 (7 dpi)) [logs] | Reduction of APEC colonization in cecum ([2]; 50 mg/L in drinking water, 7 dpi) [log CFU/gm] | Bodyweight ([2]; in vivo) | MIC50 [3] [mM] | MIC ([3]; 100% APEC growth inhibition) [mM] | Relative importance of Asparagine in P2 [4] [%] | Relative importance of Aspartate in P2 [4] [%] | Relative importance of Proline in P2 [4] | Relative importance of glutamic acid in P2 [4] [%] | Relative importance of lysine in P2 [4] [%] | Biofilm embedded SE [5] [Log CFU/mL] | MIC [3] [mM]
1 | PDENK [Peptide P2, PDENK] | 30 | 1.8 | 1.5 | no significant effect | 9.5 | 12 | 35 | 82 | zero relative importance | 77 | 32 | 0.00 ± 0.00 | –
2 | MLNERVK [Peptide P4, MLNERVK] | 30 | – | – | – | 20.0 | – | – | – | – | – | – | 0.00 ± 0.00 | > 18
